Holding throughout (assay type): cell-based
One test concerns HCT-116. The test is described as follows: Cytotoxicity assay (SRB), HCT-116. Particulars: Homo sapiens, HCT-116, 72 h, read-out: In Vitro Cellular Activity IC50 HCT116. Here is the method:
(§1) BT474, HCT-116, LoVo and MCF-7 were maintained under 7% CO2 in RPMI 1640 medium supplemented with 10% fetal bovine serum and 50 µg/ml gentamicin.
(§2) Cells were plated in 96-well microtiter dishes (12000 cells/well for BT474, 4000 cells/well for HCT-116, 6000 cells/well for LoVo and 6000 cells/well for MCF-7) in RPMI 1640 medium containing 5% fetal bovine serum and 50 µg/ml gentamicin. The cells were allowed to incubate overnight at 37° C., 7% CO2. Compound dilutions were prepared using the same medium. HCT-116, LoVo and MCF-7 cells were cultured for three days and BT474 cells were cultured for 6 days, in the presence of each compound dilution. Untreated cells were included as controls. The percentage of surviving cells was determined using a protein binding dye (sulforhodamineB, SRB) assay. Cellular protein was precipitated in each well by the addition of 0.05 ml of 50% cold trichloroacetic acid (TCA). After 1 hour, the plates were washed extensively in dH2O and dried. The sulforhodamineB dye solution (0.08 mL of 0.4% SRB in 1% acetic acid) was added to each well, kept at room temperature for ten minutes, then washed in 1% acetic acid and dried. The dye was dissolved in 10 mM Tris-HCl (150 uL) and the absorbency read at 540 nm.

The next test relates to LoVo. The experiment in a line: Cytotoxicity assay (SRB), LoVo. Particulars: Homo sapiens, LoVo, 72 h, read-out: In Vitro Cellular Activity IC50 LOVO. How it is done: as §1, §2
The test system of another test is BT474. The test is described as follows: Cytotoxicity assay (SRB), BT474. Particulars: Homo sapiens, BT-474, 144 h, read-out: In Vitro Cellular Activity IC50 BT474. Here is the method:
as §1, §2

A further test concerns MCF-7. The test is described as follows: Cytotoxicity assay (SRB), MCF-7. The note with it: Homo sapiens, MCF7, 72 h, read-out: In Vitro Cellular Activity IC50 MCF-7. Here is the method:
as §1, §2

Each structure is given as a SMILES string. Where two headings read alike, the source gives them in different places. Some results are limits rather than exact numbers.

The term IC50 denotes the concentration at which inhibition is half-maximal. Consider `CCCCN(C)CCN(C)c1ccc(NC=C2C(=O)NC(=O)c3ccc(Br)cc32)cc1` (stereo in doubt) [Example 257, (4Z)-6-Bromo-4-[({4-[{2-[butyl(methyl)amino]ethyl}(methyl)amino]phenyl}amino)methylene]isoquinoline-1,3(2H,4H)-dione], for which the IC50 with HCT-116 (HCT116 cells, SRB, three days) was 2.5 µM; with LoVo (LoVo cells, SRB, three days) it was 4.7 µM; in the test on BT474 (BT474 cells, SRB, 6 days) it was 6.5 µM; in the test with MCF-7 (MCF-7 cells, SRB, three days), 3.6 µM.
Regarding `CCCCN(C)CCN(C)c1ccc(NC=C2C(=O)NC(=O)c3ccc(Br)cc32)cc1` (stereo in doubt) [Example 866, (4Z)-6-Bromo-4-[({4-[{2-[butyl(methyl)amino]ethyl}(methyl)amino]phenyl}amino)methylene]isoquinoline-1,3(2H,4H)-dione], the IC50 in the test with HCT-116 (HCT116 cells, 3 days, SRB) worked out at 2.5 µM; in the test with LoVo (LoVo cells, 3 days, SRB) it was 4.7 µM; with BT474 (BT474 cells, 6 days, SRB), 6.5 µM; in the test on MCF-7 (MCF-7 cells, 3 days, SRB) it was 3.6 µM.
On to `CN(CCN1CCOCC1)c1ccc(NC=C2C(=O)NC(=O)c3ccc(Br)cc32)cc1` (stereo in doubt) [Example 871, (4Z)-6-Bromo-4-[({4-[methyl(2-morpholin-4-ylethyl)amino]phenyl}amino)methylene]isoquinoline-1,3(2H,4H)-dione], for which the IC50 was 13.9 µM in the test with HCT-116 (HCT116 cells, 3 days, SRB); 46.6 µM in the test with LoVo (LoVo cells, 3 days, SRB); greater than 50 µM with BT474 (BT474 cells, 6 days, SRB); 29.1 µM in the test with MCF-7 (MCF-7 cells, 3 days, SRB).
Turning to `CN1C(=O)/C(=C\Nc2ccc(CN3CCCCC3)cc2)c2ccccc2C1=O` [Example 49, (4Z)-2-Methyl-4-{[(4-piperidin-1-ylmethyl)phenyl]amino}methyleneisoquinoline-1,3(2H,4H)-dione], the 50% inhibitory concentration (IC50) came out at 5.5 µM in the test with HCT-116, 11.5 µM in the test with LoVo, 6.85 µM in the test on BT474 and 13 µM in the test on MCF-7.
On to `O=C1NC(=O)c2ccc(Br)cc2/C1=C/NCc1ccc2cc[nH]c2c1` [Example 129, (4Z)-6-Bromo-4-{[(1H-indol-6-ylmethyl)amino]methylene}isoquinoline-1,3(2H,4H)-dione], for which the half-inhibitory concentration (IC50) in the test with HCT-116 (HCT116 cells, SRB, three days) is 26 µM; with LoVo (LoVo cells, SRB, three days) it was greater than 50 µM; in the test with BT474 (BT474 cells, SRB, 6 days), 30 µM; with MCF-7 (MCF-7 cells, SRB, three days) it was 39 µM.
Taken in the same sequence, the figures for `COc1ccc(CN/C(C)=C2\C(=O)NC(=O)CC2c2ccccc2)cc1O` (centres unmarked) [Example 140, (3Z)-3-{1-[(3-hydroxy-4-methoxybenzyl)amino]ethylidene}-4-phenylpiperidine-2,6-dione] were greater than 50 µM, greater than 50 µM, 30 µM and greater than 50 µM.
Taken in the same sequence, the figures for `O=C1NC(=O)c2ccc(Br)cc2/C1=C/NCc1ccc(OCCOCc2ccccc2)c(O)c1` [Example 159] were 16 µM, 18 µM, 25 µM and greater than 50 µM.
Taken in the same sequence, the figures for `COc1ccc(CN/C=C2\C(=O)N(C(C)=O)N(C(C)=O)c3ccccc32)cc1O` [Example 167, (4Z)-1,2-Diacetyl-4-{[(3-hydroxy-4-methoxybenzyl)amino]methylene}-1,4-dihydrocinnolin-3(2H)-one] were 11 µM, 12 µM, 9.6 µM and 13 µM.
Consider `O=C1NC(=O)c2ccc(Br)cc2/C1=C/NCc1ccccc1O` [Example 174, (4Z)-6-Bromo-4-{[(2-hydroxybenzyl)amino]methylene}isoquinoline-1,3(2H,4H)-dione], for which the IC50 in the test with HCT-116 (HCT116 cells, SRB, three days) is 19 µM; in the test on LoVo (LoVo cells, SRB, three days), 35 µM; in the test with BT474 (BT474 cells, SRB, 6 days) it was 30 µM; with MCF-7 (MCF-7 cells, SRB, three days), 50 µM.
On to `COc1ccc(CN/C=C2\C(=O)NC(=O)c3ccc(Br)cc32)cc1F` [Example 181, (4Z)-6-Bromo-4-{[(3-fluoro-4-methoxybenzyl)amino]methylene}isoquinoline-1,3(2H,4H)-dione], for which the IC50 is 16 µM in the test with HCT-116 (HCT116 cells, SRB, three days); greater than 50 µM in the test with LoVo (LoVo cells, SRB, three days); greater than 50 µM with BT474 (BT474 cells, SRB, 6 days); greater than 50 µM in the test on MCF-7 (MCF-7 cells, SRB, three days).
For `CN1CCN(c2ccc(N/C=C3\C(=O)NCc4ccc(Br)cc43)cc2)CC1` [Example 223, (4Z)-6-Bromo-4-({[4-(4-methylpiperazin-1-yl)phenyl]amino}methylene)-1,4-dihydroisoquinolin-3(2H)-one], the IC50 in the test with HCT-116 (HCT116 cells, SRB, three days) is 4.1 µM; in the test on LoVo (LoVo cells, SRB, three days) it was 2.8 µM; in the test on BT474 (BT474 cells, SRB, 6 days) it was 8.7 µM; in the test with MCF-7 (MCF-7 cells, SRB, three days), 3.2 µM.
Taken in the same sequence, the figures for `O=C1NC(=O)c2ccc(Br)cc2/C1=C/Nc1ccc2ncccc2c1` [Example 271, (4Z)-6-Bromo-4-[(quinolin-6-ylamino)methylene]isoquinoline-1,3(2H,4H)-dione] were 46 µM, greater than 50 µM, 32 µM and 39 µM.
In the case of `CCOP(=O)(OCC)c1ccc2c(c1)/C(=C/Nc1ccc(N3CCN(C)CC3)cc1)C(=O)NC2=O` [Example 284, Diethyl [(4Z)-4-({[4-(4-methylpiperazin-1-yl)phenyl]amino}methylene)-1,3-dioxo-1,2,3,4-tetrahydroisoquinolin-6-yl]phosphonate], the IC50 in the test on HCT-116 is 20 µM; in the test on LoVo, 25 µM; with BT474, greater than 50 µM; in the test with MCF-7, 12 µM.
As for `CC(C)(C)OC(=O)N1CCN(c2ccc(N/C=C3\C(=O)NC(=O)c4ccc(Br)cc43)cc2)CC1` [Example 294, tert-Butyl 4-(4-{[(Z)-(6-bromo-1,3-dioxo-2,3-dihydroisoquinolin-4(1H)-ylidene)methyl]amino}phenyl)piperazine-1-carboxylate], the half-inhibitory concentration (IC50) in the test on HCT-116 (HCT116 cells, SRB, three days) is 9 µM; with LoVo (LoVo cells, SRB, three days) it was greater than 50 µM; in the test on BT474 (BT474 cells, SRB, 6 days) it was 49 µM; in the test with MCF-7 (MCF-7 cells, SRB, three days), 24 µM.
Taken in the same sequence, the figures for `O=C1NC(=O)c2ccc(Br)cc2/C1=C/NCc1ccc(NC(=O)C(Cl)Cl)cc1` [Example 302, N-[4-({[(Z)-(6-Bromo-1,3-dioxo-2,3-dihydroisoquinolin-4(1H)-ylidene)methyl]amino}methyl)phenyl]-2,2-dichloroacetamide] were 0.55 µM, 0.59 µM, 0.56 µM and 1.2 µM.
Regarding `O=C1NC(=O)c2ccc(Br)cc2C1=CNc1ccc(-c2ccncc2)cc1` [Example 329, 6-Bromo-4-[(4-pyridin-4-yl-phenylamino)-methylene]-4H-isoquinoline-1,3-dione], the 50% inhibitory concentration (IC50) was 4.7 µM with HCT-116 (HCT116 cells, SRB, three days); 30 µM in the test with LoVo (LoVo cells, SRB, three days); 18.5 µM in the test on BT474 (BT474 cells, SRB, 6 days); 14 µM in the test on MCF-7 (MCF-7 cells, SRB, three days).
Taken in the same sequence, the figures for `CC(C)(C)OC(=O)N1CCN(c2ccc(N/C=C3\C(=O)NC(=O)c4ccc(I)cc43)cc2)CC1` [Example 377, tert-Butyl 4-(4-{[(Z)-(6-iodo-1,3-dioxo-2,3-dihydroisoquinolin-4(1H)-ylidene)methyl]amino}phenyl)piperazine-1-carboxylate] were 11 µM, greater than 50 µM, greater than 50 µM and greater than 50 µM.
`O=C1NC(=O)c2ccc(I)cc2/C1=C/Nc1ccc(C2=NCCC2)cc1` [Example 403, 4-{[4-(4,5-Dihydro-3H-pyrrol-2-yl)-phenylamino]-methylene}-6-iodo-4H-isoquinoline-1,3-dione]: the concentration for half-maximal inhibition (IC50) in the test with HCT-116 (HCT116 cells, 3 days, SRB) is 41.5 µM; in the test with LoVo (LoVo cells, 3 days, SRB), greater than 50 µM; in the test on BT474 (BT474 cells, 6 days, SRB) it was 40 µM; in the test on MCF-7 (MCF-7 cells, 3 days, SRB), greater than 50 µM.
With `CC(C)(C)OC(=O)N1CCN(c2ccc(N/C=C3\C(=O)NC(=O)c4ccc(I)cc43)cn2)CC1` [Example 409, tert-Butyl 4-(5-{[(Z)-(6-iodo-1,3-dioxo-2,3-dihydroisoquinolin-4(1H)-ylidene)methyl]amino}pyridin-2-yl)piperazine-1-carboxylate], the IC50 amounted to 25.6 µM with HCT-116 (HCT116 cells, 3 days, SRB); 6.4 µM in the test with LoVo (LoVo cells, 3 days, SRB); 41.6 µM in the test with BT474 (BT474 cells, 6 days, SRB); 36.6 µM in the test on MCF-7 (MCF-7 cells, 3 days, SRB).
Taken in the same sequence, the figures for `CN1CCN(c2ccc(N/C=C3\C(=O)NC(C)(C)c4ccc(Br)cc43)cc2)CC1` [Example 452, 6-Bromo-1,1-dimethyl-4-{[4-(4-methyl-piperazin-1-yl)-phenylamino]-methylene}-1,4-dihydro-2H-isoquinolin-3-one] were 3.1 µM, 1.5 µM, 9.3 µM and 3.3 µM.
